Data: PubChem BioAssay AID2745 (NMMLSC, 2010)
Calls of active or inactive are those of the source. How the calls were made is not given here.

tested on: S. cerevisiae LAP4-GFP reporter, flow cytometry fluorescence; test: LAP4-GFP modulation potency in yeast, dose response, cell-based, MLPCN hits, flow cytometry (AID 2745); conditions: not given;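 further: yeast exposed to compound for three hours at 30 degrees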

| SMILES | EC50 |
| --- | --- |
| CCCCCCCCC/C(=N\O)c1ccccn1 | 6.13 µM |
| COc1ccc(C(=O)/C=C2/C(=O)Nc3ccccc32)cc1 | 3.38 µM |
| CC(Oc1ccc(Br)cc1)C(=O)Nc1nc(-c2ccccn2)cs1 (stereo not drawn) | 4 µM |
| CCn1c(=O)c(C(=O)Nc2nc3ccccc3[nH]2)c(O)c2ccccc21 | 0.45 µM |
| COc1ccc(N2CCN(C(=O)c3ccc(Br)cc3)CC2)c([N+](=O)[O-])c1 | 11.4 µM |
| O=C(/C=C/c1ccc(Cl)c([N+](=O)[O-])c1)c1cccnc1 | 28.6 µM |
| N=C1S/C(=C\c2ccco2)C(=O)N1c1nccs1 | 4 µM |
| CC(C)Oc1ccc(C(=O)/C=C2/C(=O)Nc3ccccc32)cc1 | 9.41 µM |
| CSC1=NS(=O)(=O)c2c(C)nn(C)c2S1 | 27.6 µM |
| CC(C)(C)c1ccc(NC(=O)COC(=O)c2ccc([N+](=O)[O-])s2)cc1 | 3.72 µM |
| Cc1ccc(/C=C2\C(=O)NC(=S)N(c3ccc(F)cc3)C2=O)s1 | 1.15 µM |
| Cc1cc(C)c(S(=O)(=O)ON2C(=O)c3ccccc3C2=O)cc1C | 3.12 µM |
| Cc1ccc(NC(=O)c2ccc(Cl)c(N3C(=O)C=CC3=O)c2)cc1 | 1.59 µM |
| CC(=O)c1ccc(N2CCN(C(=O)c3ccc(Br)cc3)CC2)c(F)c1 | 9.91 µM |
| O=C(Nc1nc(-c2ccccn2)cs1)C1COc2ccccc2O1 (stereo not drawn) | 3.9 µM |
| O=C(C#Cc1ccccc1)c1cccc([N+](=O)[O-])c1 | 7.75 µM |
| O=[N+]([O-])c1ccc(S(=O)(=O)c2cccc(C(F)(F)F)c2)nc1 | 21.5 µM |
| CCOc1ccc(N2C(=O)/C(=C\c3cccs3)C(=O)NC2=S)cc1 | 1.96 µM |
| Cc1cc(S(=O)(=O)ON2C(=O)c3ccccc3C2=O)ccc1F | 4.21 µM |
| Cc1cc(C2CCCCC2)n(O)c(=O)c1 | 5.33 µM |

| SMILES | EC50 |
| --- | --- |
| CCCOc1ccc(C(=O)NNC(=S)NC(=O)c2ccco2)cc1 | 13.3 µM |
| Cc1cc(O)c(C(=O)/C=C/c2ccc(Cl)cc2)c(=O)o1 | 6.38 µM |
| O=C1ON=C(c2ccccc2)/C1=C/c1ccc(-c2ccccc2[N+](=O)[O-])o1 | 5 µM |
| CC(C)(C)C(=O)NC(=S)NNC(=O)c1ccc(-c2ccccc2)cc1 | 7.51 µM |
| O=C(NC(=S)NNC(=O)c1cnccn1)c1ccc(Cl)cc1 | 1.75 µM |
| COc1cccc(C(=O)Nc2nnc(-c3ccc(Cl)cc3)o2)c1 | 3.84 µM |
| Cc1cccc2c1NC(=O)/C2=C\C(=O)c1cccs1 | 5.59 µM |
| O=[N+]([O-])c1cc(S(=O)(=O)C(F)(F)F)ccc1Sc1nc2ccccc2s1 | 8.42 µM |
| CN1CCN(C(=O)c2cc(COc3c(F)cccc3F)on2)CC1c1ccccc1 (stereo not drawn) | 6.66 µM |
| Cc1ccc(/C=C2/C(=O)ON=C2c2ccccc2)o1 | 3.48 µM |
| Cc1ccsc1/C=C1\C(=O)NC(=S)N(C)C1=O | 0.327 µM |
| Cc1c(C(=O)Nc2nc(-c3ccccn3)cs2)oc2ccccc12 | 4.01 µM |
| Cc1ccc(C2=NOC(=O)/C2=C\c2ccc(C)o2)cc1 | 4.47 µM |
| O=C(C#Cc1ccccc1)c1ccco1 | 5.17 µM |
| O=C(Nc1ccc(Cl)cc1)ON=C1CCCC1 | 3.95 µM |
| COc1cc(N2C(=O)C=CC2=O)c(OC)cc1Cl | 1.44 µM |
| O=C1NC(=O)N(c2ccccc2)C(=O)/C1=C/c1ccc(Sc2ccccc2)o1 | 11.2 µM |
| Nc1ccc(Br)c2c1C(=O)c1ccccc1C2=O | 1.18 µM |
| O=[N+]([O-])c1cc(O)c2ncccc2c1 | 9.88 µM |

tested on: not listed separately; test: as above; conditions: S. cerevisiae LAP4-GFP reporter, flow cytometry fluorescence; at 33 µM (top of the series)

| SMILES | LAP4-GFP fluorescence (kMESF) |
| --- | --- |
| O=C(NOC(=O)c1ccccc1)c1ccccc1 | 10.6 kMESF (inactive) |
| CC(Oc1ccc2ccccc2c1)C(=O)NNC(=S)NC(=O)c1ccco1 (stereo not drawn) | 13.9 kMESF (inactive) |
| O=c1c2cc(Cl)ccc2nc(-c2ccc([N+](=O)[O-])cc2)n1O | 5.26 kMESF (inactive) |
| CCC1(c2ccccc2)ON(c2c(Br)cccc2Br)C1=O (stereo not drawn) | 7.52 kMESF (inactive) |
| CCOc1ccc(C(C)=O)cc1N1C(=O)C2C3C=CC(O3)C2C1=O (stereo not drawn) | 14 kMESF (inactive) |
| Fc1cccc(Nc2ncnc3c2cnn3-c2ccccc2)c1 | 5.86 kMESF (inactive) |
| C[C@H]1C[C@@H](C)C(=O)[C@@H]([C@H](O)CC2CC(=O)NC(=O)C2)C1 | 7.12 kMESF (inactive) |
| Cc1cccc(NC(c2ccc(C)s2)c2ccc3ccc(C)nc3c2O)n1 (stereo not drawn) | 16.8 kMESF (inactive) |
| CCOc1ccccc1/C=c1\sc2ncnn2c1=O | 19 kMESF (inactive) |
| Cc1ccc(S(=O)(=O)Cc2cc(F)c([N+](=O)[O-])cc2[N+](=O)[O-])cc1 | 1.59 kMESF (inactive) |
| Cc1nn2c(-c3ccncc3)nnc2c2ccccc12 | 3.34 kMESF (inactive) |
| COc1ccc(N2C(=O)CC(Sc3ncn[nH]3)C2=O)c(OC)c1 (stereo not drawn) | 13.7 kMESF (inactive) |
| COc1cc(/C=C2\C(=O)ON=C2c2ccccc2)cc(OC)c1OC | 6.41 kMESF (inactive) |
| Cc1ccc(C(=O)O/N=C(\N)Cc2cccs2)c(Cl)c1 | 13.1 kMESF (inactive) |
| O=[N+]([O-])c1ccc(-c2cn3nc(-c4ccccc4)c(-c4ccccc4)nc3n2)cc1 | 9.37 kMESF (inactive) |
| O=C(Nc1nnc(-c2ccc3c(c2)CCCC3)o1)c1ccc(Cl)cc1Cl | 5.77 kMESF (inactive) |
| O=S(=O)(/N=C(\Sc1ccc(Cl)cc1)c1ccccc1)c1ccccc1 | 12.4 kMESF (inactive) |
| COc1cc(/C=C2/C(=O)ON=C2c2ccccc2)ccc1O | 9.39 kMESF (inactive) |
| CCOC(=O)c1c(C)oc2c1c(C(c1ccncc1)N1CCOCC1)c(O)c1ccccc12 (stereo not drawn) | 6.29 kMESF (inactive) |
